Measurements: patent US20050208511A1, “DMBT1 as a clinical marker and uses thereof” (priority 2003, published 2005)

Columns and labels:
DMBT1 [1] = experiment: DNA microarray analysis of DMBT1 expression in endometrium of ovariectomized monkeys; type: in vivo, cynomolgus monkeys (Macaca fascicularis); conditions: for effect on estrogen-induced increase in DMBT1 mRNA levels: OVX monkeys with estrogen implant plus mifepristone 10 mg/kg/d, microarray analysis and PCR
Text: (§1) Adult female cynomolgus monkeys (Macaca fascicularis) were obtained from Covance Research Products. Following one complete menstrual cycle and in the follicular phase of the subsequent menstrual cycle, the animals were ovariectomized by a mid-ventral laparotomy. Ovariectomized (OVX) animals were subject to estrogen treatment after the fourth week following ovariectomy.
Following this period, the OVX monkeys were euthanized and tissue biopsies were taken from endometria of the monkeys treated with estrogen and the placebo. (Details of the endometrial features in OVX monkeys and OVX+estrogen-treated monkeys is described in Example 4.) The biopsies were placed in sterile containers, snap frozen immediately in liquid nitrogen, and stored at −80° C. until processed. Total RNA was prepared from each endometrial tissue biopsy, as described below.
Total RNA was prepared from endometrial tissue biopsies (approximately 50 mg each) using RNAzol™ (Tel-Test, Friendswood, Tex.), as follows. Two milliliters of RNAzol™ were used per 100 mg of tissue. Tissues were homogenized for 2 to 3 minutes using a Tissue Tearor homogenizer (Model No. 985-370; BioSpec Products, Bartlesville, Okla.), then transferred to a glass mortar bowl. The tissues were ground with at least 10 strokes of the pestle until a clear suspension was obtained. The homogenates were transferred to a polypropylene conical flask, to which 0.1 mL of chloroform per 1 mL of homogenate was added. The mixtures were then shaken vigorously for 1 minute. The suspensions were then transferred to a 2 mL microcentrifuge tube and centrifuged for 15. minutes at 12000 g and at 4° C. in a fixed angle rotor using a Biofuge 17R centrifuge (Baxter, Deerfield, Ill.). The aqueous phase was carefully transferred to a new microcentrifuge tube. An equal volume of isopropanol was added to the aqueous phase, mixed gently, and incubated at 4° C. for 15 minutes. RNA was pelleted by centrifuging the mixture for 15 minutes at 12000 g and at 4° C. as described above. The supernatant was removed and the pellet washed with 75% (v/v) ethanol (Pharmco Products, Brookfield, Conn.), followed by centrifugation at 7500 g for 8 minutes at 4° C. The supernatant was removed, and then the RNA pellet was air-dried briefly and resuspended in RNase-free water (Promega, Madison, Wis.). The samples were then treated with Amplification Grade RNase-free DNase I to remove any residual DNA (Invitrogen, Carlsbad, Calif.). Specifically, twenty micrograms of RNA were treated in a reaction volume of 0.1 mL, containing 1× DNase I reaction buffer and 10 units of DNase I. The reaction continued at room temperature for 15 minutes. […]

endometrium = experiment: average endometrial thickness in treated monkeys; type: in vivo, cynomolgus monkeys (Macaca fascicularis); conditions: Ovx/E2 + PRM 10 mg/kg daily oral, 19 days
Text: as §1
Animals and treatment were the same as Example 1 with the following exceptions. To study the effect of PRMs on the endometrium and gene expression, groups of three ovariectomized (OVX) monkeys were given an estrogen implant (E2), plus daily oral doses of the following PRMs for 19 days: mifepristone at 10 mg/kg/d; 17N11-DE (17β-N-substituted-11β-dimethylaminophenyl-estra-4,9-dien-3-one) 1.0, 3.0, or 10 mg/kg/d; 17N11-PE (17β-N-substituted-11β-piperidinylphenyl-estra-4,9-dien-3-one) at 1.0, 3.0, or 10 mg/kg/d. A placebo (0.5% methylcellulose) was administered as a control. 17N11-DE and 17N11-PE are two PRMs that have been described in PCT Publication No. WO 99/62928. Tissue samples were taken from endometria and myometria for histological analysis.

DMBT1 [2] = experiment: quantitative RT-PCR of DMBT1 in uterus of ovariectomized rats; type: in vivo, Wistar rats; conditions: OVX rats, ethinyl estradiol + medroxyprogesterone acetate + 10 mg/kg mifepristone (FIG. 3B)
Method: Six weeks old ovariectomized Wistar rats (Charles River, Wilmington, Mass.) were dosed for either one day or six weeks with vehicle or test compounds. All treatments were delivered orally, once daily, in 0.5% methylcellulose or sesame oil. After treatment, the uteri were removed, total RNA was purified from the tissues using TRIzol reagent (Invitrogen, Carlsbad, Calif.) as directed by the manufacturer.
Quantitative reverse transcription-polymerase chain reactions (RT-PCR) of DMBT1 from rat RNA samples were carried out using a One-Step RT-PCR Master Mix Kit (Applied Biosystems, Foster City, Calif.) and an ABI Prism 7000 Sequence Detection System (Applied Biosystems), as described by the manufacturer. Commercially available primers and FAM-labeled MGB probes for human and rat DMBT1 (catalog numbers Hs00244827_ml and Rn00575705_ml, respectively) were obtained from Applied Biosystems (Foster City, Calif.). Messenger RNA levels were normalized against 18S ribosomal RNA levels determined using primers and a VIC- and TAMRA-labeled probe from the same vendor.

uterus = experiment: uterine weight in 22-day-old female rats; type: in vivo, Sprague Dawley rats; conditions: oral; for uterine weight on co-treatment with estrone: 70 μg/kg/day estrone + 1 mg/kg/day compound, three days (FIG. 1); for uterine weight: compound alone, three days, estrone 70 μg/kg/day, others 1 mg/kg/day, vs control (FIG. 1)
Method: (§2) Ten groups of 22-day-old female Sprague Dawley rats (three animals per group) were used to evaluate the effects of estrone, tamoxifen, raloxifene, and ICI 182780 on DMBT1 expression in the uterus. The following groups of rats were treated for three days as follows:
(§3) All treatments were delivered orally in 0.5% Methocel. After treatment the animals were euthanized and the uteri were collected, weighed, frozen in liquid nitrogen, and stored at −20° C. RNA was purified from the frozen uteri using 1.0 mL of TRIzol Reagent (Invitrogen) and a PowerGen 25 tissue homogenizer (Fisher Scientific), according to the manufacturer's instructions.
In rats, uteri increase in size under the proliferative influence of estrogen, and this increase in size can be measured by weighing the tissues.
Administration of the treatments and collection of tissue samples were carried out according to the procedure described in Example 2. RNA was purified, blotted and hybridized to radioactively labeled rat ebnerin cDNA as in described in Example 2.

DMBT1 [3] = experiment: Northern analysis of DMBT1 expression in rat uterus; type: in vivo, Sprague Dawley rats; conditions: 70 μg/kg/day estrone + 1 mg/kg/day compound, relative to estrone alone (FIG. 3A)
Method: as §2, §3
Northern analysis was performed to determine gene expression, including DMBT1 expression, in the uterus of control and treated rats. For gel electrophoresis, samples containing 2 μg of total RNA in a volume of 2 μL of water were added to 6 microliters of formaldehyde loading dye (Ambion) and incubated at 65° C. for 20 minutes. One microliter of a 0.1 mg/ml ethidium bromide solution was then added to each sample. […] The RNA was transferred to a Hybond-N membrane (Amersham) for […] by capillary transfer blotting, using 10×SSC (0.15 M Sodium citrate, pH 7.0, 1.5 M NaCl), after which the membranes were stained with ethidium bromide, destained with water, and photographed for lane loading comparison. The membranes were then air-dried and kept at room temperature until hybridization.
A glycerol stock of a bacterial clone carrying a plasmid (pINCY) containing the rat ebnerin (DMBT1) gene was obtained from Incyte Genomics (ID#: 0000101155000011). […] One colony was selected and used to inoculate 200 mL of Lennox L Broth (Sigma)+50 μg/mL ampicillin (Sigma). The liquid culture was grown overnight at 37° C. and the bacteria were collected by centrifugation. Purification of plasmid DNA was carried out using a QIAfilter plasmid maxi kit (QIAgen) according to the manufacturer's instructions.
Purified pINCY/DMBT1 was treated with the restriction enzymes EcoRI and NotI (Promega) for the preparation and isolation of a 1,174 bp DNA fragment containing the ebnerin probe (DMBT1). The products of the restriction enzyme reaction were separated by electrophoresis on a 1× TAE, 1% SeaKem Gold Agarose Reliant gel, and the band corresponding to the 1.174 kb DNA ebnerin clone was excised. The ebnerin DNA probe was purified from the gel slice using a QIAquick Gel Extraction Kit (QIAgen) according to the manufacturer's instructions. Bound DNA was eluted from the QIAgen column with 50 μL of elution buffer. The ebnerin DNA probe in the eluate was quantified by comparison to a DNA standard by gel electrophoresis. The ebnerin DNA probe was then diluted to a final concentration of 25 ng/μL.
Random-primed probe was made from 25 ng of the purified ebnerin DNA using a DECAprime II kit (Ambion) and Redivue α-^32P dATP (10 mCi/mL) (Amersham) according to the manufacturer's instructions, with the exception that the reaction was incubated for 30 minutes at 37° C. After adding EDTA to stop the reaction, the labeled probe was purified using a QIAquick Nucleotide Removal Kit (QIAgen) according to the manufacturer's instructions, with the final volume of eluted probe being 50 μL. Two microliters were counted in a scintillation counter to ensure optimal radionuclide incorporation (>2×10^6 cpm/μL).
The blot membrane as described in section A was wet in 2×SSC buffer (Sigma) for 15 minutes, then pre-hybridized in 10 mL RapidHyb (Amersham) at 65° C. for 20 minutes. The probe was boiled for 10 minutes, and 25 μL was added to 10 mL of RapidHyb, pre-warmed to 65° C. The blot membrane was added to the diluted probe solution and incubated, with rotation, in a hybridization oven for approximately 10 hours.
The membrane was removed from the probe-containing solution and rinsed twice with 2×SSPE +0.5% SDS+0.5% pyrophosphate at room temperature, and then washed once, with gentle agitation, for 30 minutes at room temperature in the same solution.

DMBT1 [4] = experiment: immunohistochemical analysis of DMBT1 expression in rat uterus; type: in vivo, Wistar rats; conditions: OVX rats dosed six weeks; compared with estrogen (ethinyl estradiol)
Method: Tissues were trimmed and processed for paraffin embedding according to conventional methods. Five-micron sections were cut, mounted onto SuperFrost Plus+(Fisher Scientific, Pittsburgh, Pa.) microscopic slides and dried overnight. […] Briefly, tissue sections on microscopic slides were dewaxed and re-hydrated. Slides were microwaved for 5 min in Target buffer (Dako, Carpenturia, Calif.), cooled, placed in phosphate-buffered saline (PBS, pH 7.4) and treated with 3% (v/v) H2O2 for 10 min at room temperature. All incubations (30 min each) and washes were performed at room temperature. Normal rabbit blocking serum (Vector Labs, Burlingame, Calif.) was placed on all slides for 10 min. After a brief rinse in PBS, sections were treated with goat polyclonal DMBT1 primary antibody (1:25, Hypromatrix, Worcester, Mass.). Slides were then washed in PBS and treated with rabbit anti-goat biotinylated secondary antibodies (Vector Labs). […]
The rabbit polyclonal PCNA (proliferating cell nuclear antigen) antibody (1:4000; Sigma, St. Louis, Mo.) was detected using the HRP:SG detection system as described for routine single IHC, except the use of the SG chromogen (Vector Labs). […] DMBT1 was then detected using the Fast Red chromogen (Sigma, St. Louis, Mo.). […]

luminal epithelium = luminal epithelium thickening in rat uterus sections; type: in vivo, Wistar rats; conditions: OVX rats dosed six weeks, compared to sham and ovariectomized control; estrogen = ethinyl estradiol
Method: Mature, six week-old ovariectomized or sham-operated Wistar rats (Charles River) were dosed with ethinyl estradiol, tamoxifen or raloxifene for six weeks. Uteri were removed, sectioned for immunohistochemical analysis for DMBT1 expression using a polyclonal goat antibody against the human protein.
Tissues were trimmed and processed for paraffin embedding according to conventional methods. Five-micron sections were cut, mounted onto SuperFrost Plus+(Fisher Scientific, Pittsburgh, Pa.) microscopic slides and dried overnight. The protocols for routine single immunohistochemistry (IHC) have been described previously (D'Andrea et al., 2001, Biotechnic Histochem. 76:97-106). Briefly, tissue sections on microscopic slides were dewaxed and re-hydrated. Slides were microwaved for 5 min in Target buffer (Dako, Carpenturia, Calif.), cooled, placed in phosphate-buffered saline (PBS, pH 7.4) and treated with 3% (v/v) H2O2 for 10 min at room temperature. All incubations (30 min each) and washes were performed at room temperature. Normal rabbit blocking serum (Vector Labs, Burlingame, Calif.) was placed on all slides for 10 min. After a brief rinse in PBS, sections were treated with goat polyclonal DMBT1 primary antibody (1:25, Hypromatrix, Worcester, Mass.). Slides were then washed in PBS and treated with rabbit anti-goat biotinylated secondary antibodies (Vector Labs). After washing in PBS, the avidin-biotin-horseradish peroxidase complex reagent (HRP, Vector Labs) was added. All slides were washed and treated with 3,3′-diaminobenzidine (DAB, Biomeda, Foster City, Calif.) two times for 5 min each, rinsed in distilled water, and counterstained with hematoxylin.

With `CC#C[C@]1(O)CC[C@H]2[C@@H]3CCC4=CC(=O)CCC4=C3[C@@H](c3ccc(N(C)C)cc3)C[C@@]21C` [mifepristone] the “effect on estrogen-induced increase in DMBT1 mRNA levels” value (DMBT1 [1]) was “inhibited”, the “effect on estrogen-induced increase in DMBT1 mRNA levels” value (DMBT1 [1]; listed as Mifepristone) was “prevented the increase in DMBT1 mRNA levels” and the “repression of estrogen-induced DMBT1 mRNA levels” value (DMBT1 [1]; Ovx/E2 + 10 mg/kg, microarray (FIG. 7)) was “about 20 fold”. For the same compound, the “Endometrial Thickness (mm)” value (endometrium) was “shrinks to about the thickness of that seen with leuprolide-treated tissue”, the “Endometrial Thickness (mm)” value (endometrium; listed as Mif) was 1.17 mm and the “effect on progestin blockade of DMBT1 mRNA increase” value (DMBT1 [2]) was “blocked in turn”.
`O=C(c1ccc(OCCN2CCCCC2)cc1)c1c(-c2ccc(O)cc2)sc2cc(O)ccc12` [raloxifene] was tested, and the “uterine weight on co-treatment with estrone” value (uterus) was “lower uterine weights, as compared to estrone”, the uterine weight (uterus) was “did not significantly affect uterine weight” and the “DMBT1 expression on coadministration with estrone” value (DMBT1 [3]) was “additive increase”. The “cell levels of DMBT1 (immunostaining) in luminal epithelium” value (DMBT1 [4]) was “higher cell levels of DMBT1 than estrogen” and the “thickening of the luminal epithelium” value (luminal epithelium) was “not with raloxifene treatment”.
With `CC/C(=C(\c1ccccc1)c1ccc(OCCN(C)C)cc1)c1ccccc1` [tamoxifen] the “uterine weight on co-treatment with estrone” value (uterus) was “lower uterine weights, as compared to estrone”, the uterine weight (uterus) was “increases uterine weight only moderately” and the “DMBT1 expression on coadministration with estrone” value (DMBT1 [3]) was “increased slightly”. The “cell levels of DMBT1 (immunostaining) in luminal epithelium” value (DMBT1 [4]) was “higher cell levels of DMBT1 than estrogen” and the “thickening of the luminal epithelium” value (luminal epithelium) was “even more pronounced”.
